US20260176320A1, “MODULATORS OF G-PROTEIN COUPLED RECEPTORS” (priority 2018, published 2026)
Where two headings read alike, the source gives them in different places.

How the values were obtained:
GLP-1R [1] = biological target: T1, GLP-1R (Homo sapiens, UniProt P43220); test: HitHunter cAMP assay (GLP-1R); type: cell-based; conditions: cAMP; for Emax: read-out: (Emax) GLP-1R
Outline: (§1)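 Duplicate 22-point, 2-fold agonist titrations applied to receptor-expressing suspension cells in IBMX-containing HBSS; 30 min RT stimulation. Read: luminescent cAMP immunocompetition after O/N dark incubation.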

GIP-R = biological target: T2, GIP-R (Homo sapiens, UniProt P48546); test: HitHunter cAMP assay (GIP-R); type: cell-based; conditions: cAMP; for Emax: read-out: (Emax) GIP-R
T2 sequence (P48546 22-466): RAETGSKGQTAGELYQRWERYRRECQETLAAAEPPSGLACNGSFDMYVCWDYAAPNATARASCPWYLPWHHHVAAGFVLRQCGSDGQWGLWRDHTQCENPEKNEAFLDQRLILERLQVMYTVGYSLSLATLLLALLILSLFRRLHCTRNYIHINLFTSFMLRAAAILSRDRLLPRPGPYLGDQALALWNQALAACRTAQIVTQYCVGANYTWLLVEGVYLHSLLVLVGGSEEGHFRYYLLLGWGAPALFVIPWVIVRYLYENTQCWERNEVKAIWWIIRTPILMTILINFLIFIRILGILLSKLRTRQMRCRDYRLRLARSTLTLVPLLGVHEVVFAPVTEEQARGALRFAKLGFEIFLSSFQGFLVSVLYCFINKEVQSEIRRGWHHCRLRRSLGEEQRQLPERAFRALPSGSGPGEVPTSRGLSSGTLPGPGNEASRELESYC
Outline: as §1

GLP-1R [2] = biological target: T1, GLP-1R; test: PathHunter β-arrestin assay; type: cell-based
Outline: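 Following a 90 min agonist exposure at 37 °C in 0.2% BSA medium, β-arrestin coupling was detected by chemiluminescence after 3 h at room temperature.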

mice = test: Glucose tolerance test (GTT); type: in vivo, mouse; conditions: 24 h GTT, s.c., dose range 2-5 nmol/kg, percent of vehicle
Protocol: Freestyle Lite glucometer and strips; compounds to be tested; sterilized glucose solution 200 mg/ml.
Compounds were diluted in PBS from the 1 mM DMSO stocks right before injection. Body weight and baseline blood glucose level for each mouse were measured. Tails were snipped using sterile scissors; blood from tails was used to measure glucose. For 0.25 h GTT, mice were fasted for 5-6 h and injected with compound subcutaneously 15 mins before glucose injection. For 4 h GTT, mice were fasted O/N for 16 h and injected with compound subcutaneously 4 h before glucose injection. For 16 h GTT, mice were injected with compound subcutaneously 16 h before glucose injection; food was removed at the same time. For 24 h GTT, mice were injected with compound subcutaneously 24 h before glucose injection; food was removed 5-6 h before glucose injection. 20% glucose in water was prepared; the solution was sterilized by 0.2 μm-filtration. An intraperitoneal injection of glucose (2 g/kg) was given to the mouse. Continued to take blood samples from the tail. Blood glucose was measured at 10, 20, 30, 40, 60, 90, and 120 minutes after glucose injection. Between each of these time points, the mouse was returned to its cage and monitored (at least 6 replicate mice were used for each time-point). The average glucose measurements were plotted as a function of time and the area under the curve (AUC) was determined.

[3] = Table 3, read-out: EC50 GLP-1R/nM
[4] = Table 3A, read-out: EC50 GLP-1R/nM
[5] = Table 3, read-out: EC50 GIP-R/nM
[6] = Table 3A, read-out: EC50 GIP-R/nM
[7] = PathHunter β-arrestin assay, read-out: β-arrestin activity EC50

T1 sequence (P43220 24-463): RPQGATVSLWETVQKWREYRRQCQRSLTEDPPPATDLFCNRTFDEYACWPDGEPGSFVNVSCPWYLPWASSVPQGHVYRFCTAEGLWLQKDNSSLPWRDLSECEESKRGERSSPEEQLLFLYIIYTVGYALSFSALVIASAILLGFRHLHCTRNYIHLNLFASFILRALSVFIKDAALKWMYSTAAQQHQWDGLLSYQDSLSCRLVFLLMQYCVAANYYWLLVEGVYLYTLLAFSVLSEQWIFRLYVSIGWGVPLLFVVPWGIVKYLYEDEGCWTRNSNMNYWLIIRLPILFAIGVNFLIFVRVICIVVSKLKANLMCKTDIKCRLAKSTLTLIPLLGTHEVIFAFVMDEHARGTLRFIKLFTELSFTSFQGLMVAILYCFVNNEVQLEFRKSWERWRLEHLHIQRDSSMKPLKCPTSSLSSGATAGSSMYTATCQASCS

Row | SMILES | Emax (GLP-1R [1]; Table 3) [%] | EC50 (GLP-1R [1]; [3]) [nM] | Emax (GLP-1R [1]; Table 3A) [%] | EC50 (GLP-1R [1]; [4]) [nM] | Emax (GIP-R; Table 3) [%] | EC50 (GIP-R; [5]) [nM] | Emax (GIP-R; Table 3A) [%] | EC50 (GIP-R; [6]) [nM] | EC50 (GLP-1R [2]; [7]) [nM] | AUC score (mice) | EC50 (GLP-1R [1]; EC50 GLP-1R/nM, Table 3A) [nM] | EC50 (GIP-R; EC50 GIP-R/nM, Table 3A) [nM] | EC50 (GLP-1R [2]) [nM]
1 | CCCCCCCCCCCCCCCC(=O)N[C@@H](CCC(=O)NCCCC[C@H](NC(=O)[C@H](CO)NC(=O)[C@@H]1CCCN1C(=O)[C@@H]1CCCN1C(=O)[C@@H]1CCCN1C(=O)[C@H](C)NC(=O)CNC(=O)[C@H](CO)NC(=O)[C@H](CO)NC(=O)[C@@H]1CCCN1C(=O)CNC(=O)CNC(=O)[C@H](C)NC(=O)[C@H](CC(C)C)NC(=O)[C@H](CC(C)C)NC(=O)[C@H](Cc1c[nH]c2ccccc12)NC(=O)[C@H](CC(N)=O)NC(=O)[C@@H](NC(=O)[C@H](Cc1ccccc1)NC(=O)[C@H](CCC(=O)O)NC(=O)C(C)(C)NC(=O)[C@H](C)NC(=O)[C@H](C)NC(=O)[C@H](CCC(N)=O)NC(=O)[C@H](CCCCN)NC(=O)[C@H](CC(=O)O)NC(=O)[C@H](CC(C)C)NC(=O)[C@H](Cc1ccc(O)cc1)NC(=O)[C@@H](NC(=O)[C@H](CO)NC(=O)[C@H](Cc1ccc(O)cc1)NC(=O)[C@H](CC(=O)O)NC(=O)[C@H](CO)NC(=O)[C@@H](NC(=O)[C@H](Cc1ccccc1)NC(=O)[C@@H](NC(=O)CNC(=O)[C@H](CCC(=O)O)NC(=O)CSCC(=O)NCCN1CCC(C)C1=O)[C@@H](C)O)[C@@H](C)O)[C@@H](C)CC)C(C)C)C(N)=O)C(=O)O (single isomer, unassigned) [Compound 68] | 109 | 0.1 to 1 | 109 | 0.1 to 1 | 87 | 0.1 to 1 | 87 | 0.1 to 1 | > 1000 | 2 (AUC score 2 = 26-50%) |  |  | 
2 | CCCCCCCCCCCCCCCC(=O)N[C@@H](CCC(=O)NCCCC[C@H](NC(=O)[C@H](CO)NC(=O)[C@@H]1CCCN1C(=O)[C@@H]1CCCN1C(=O)[C@@H]1CCCN1C(=O)[C@H](C)NC(=O)CNC(=O)[C@H](CO)NC(=O)[C@H](CO)NC(=O)[C@@H]1CCCN1C(=O)CNC(=O)CNC(=O)[C@H](C)NC(=O)[C@H](CC(C)C)NC(=O)[C@H](CC(C)C)NC(=O)[C@H](Cc1c[nH]c2ccccc12)NC(=O)[C@H](CC(N)=O)NC(=O)[C@@H](NC(=O)[C@H](Cc1ccccc1)NC(=O)[C@H](CCC(=O)O)NC(=O)C(C)(C)NC(=O)[C@H](C)NC(=O)[C@H](C)NC(=O)[C@H](CCC(N)=O)NC(=O)[C@H](CCCCN)NC(=O)[C@H](CC(=O)O)NC(=O)[C@H](CC(C)C)NC(=O)[C@H](Cc1ccc(O)cc1)NC(=O)[C@@H](NC(=O)[C@H](CO)NC(=O)[C@H](Cc1ccc(O)cc1)NC(=O)[C@H](CC(=O)O)NC(=O)[C@H](CO)NC(=O)[C@@H](NC(=O)[C@H](Cc1ccccc1)NC(=O)[C@@H](NC(=O)CNC(=O)[C@H](CCC(=O)O)NC(=O)CSCC(=O)NCCN1C(=O)COC1=O)[C@@H](C)O)[C@@H](C)O)[C@@H](C)CC)C(C)C)C(N)=O)C(=O)O [Compound 59] | 108 | < 0.1 | 108 | < 0.1 | 31 | 1 to 10 | 31 | 1 to 10 |  | 3 (AUC score 3 = 51-75%) |  |  | 
3 | CCCCCCCCCCCCCCCC(=O)N[C@@H](CCC(=O)NCCCC[C@H](NC(=O)[C@H](CO)NC(=O)[C@@H]1CCCN1C(=O)[C@@H]1CCCN1C(=O)[C@@H]1CCCN1C(=O)[C@H](C)NC(=O)CNC(=O)[C@H](CO)NC(=O)[C@H](CO)NC(=O)[C@@H]1CCCN1C(=O)CNC(=O)CNC(=O)[C@H](C)NC(=O)[C@H](CC(C)C)NC(=O)[C@H](CC(C)C)NC(=O)[C@H](Cc1c[nH]c2ccccc12)NC(=O)[C@H](CC(N)=O)NC(=O)[C@@H](NC(=O)[C@H](Cc1ccccc1)NC(=O)[C@H](CCC(=O)O)NC(=O)C(C)(C)NC(=O)[C@H](C)NC(=O)[C@H](C)NC(=O)[C@H](CCC(N)=O)NC(=O)[C@H](CCCCN)NC(=O)[C@H](CC(=O)O)NC(=O)[C@H](CC(C)C)NC(=O)[C@H](Cc1ccc(O)cc1)NC(=O)[C@@H](NC(=O)[C@H](CO)NC(=O)[C@H](Cc1ccc(O)cc1)NC(=O)[C@H](CC(=O)O)NC(=O)[C@H](CO)NC(=O)[C@@H](NC(=O)[C@H](Cc1ccccc1)NC(=O)[C@@H](NC(=O)CNC(=O)[C@H](CCC(=O)O)NC(=O)C(C)(C)CC(=O)NCCN1CCOCC1=O)[C@@H](C)O)[C@@H](C)O)[C@@H](C)CC)C(C)C)C(N)=O)C(=O)O [Compound 244] |  |  | 100 | < 0.1 |  |  | 50 | 1 to 10 | 10 to 1000 |  |  |  | 
4 | CCCCCCCCCCCCCCCC(=O)N[C@@H](CCC(=O)NCCCC[C@H](NC(=O)[C@H](CO)NC(=O)[C@@H]1CCCN1C(=O)[C@@H]1CCCN1C(=O)[C@@H]1CCCN1C(=O)[C@H](C)NC(=O)CNC(=O)[C@H](CO)NC(=O)[C@H](CO)NC(=O)[C@@H]1CCCN1C(=O)CNC(=O)CNC(=O)[C@H](C)NC(=O)[C@H](CC(C)C)NC(=O)[C@H](CC(C)C)NC(=O)[C@H](Cc1c[nH]c2ccccc12)NC(=O)[C@H](CC(N)=O)NC(=O)[C@@H](NC(=O)[C@H](Cc1ccccc1)NC(=O)[C@H](CCC(=O)O)NC(=O)C(C)(C)NC(=O)[C@H](C)NC(=O)[C@H](C)NC(=O)[C@H](CCC(N)=O)NC(=O)[C@H](CCCCN)NC(=O)[C@H](CC(=O)O)NC(=O)[C@H](CC(C)C)NC(=O)[C@H](Cc1ccc(O)cc1)NC(=O)[C@@H](NC(=O)[C@H](CO)NC(=O)[C@H](Cc1ccc(O)cc1)NC(=O)[C@H](CC(=O)O)NC(=O)[C@H](CO)NC(=O)[C@@H](NC(=O)[C@H](Cc1ccccc1)NC(=O)[C@@H](NC(=O)CNC(=O)[C@H](CCC(=O)O)NC(=O)CCNC(=O)CCN1CCCC1=O)[C@@H](C)O)[C@@H](C)O)[C@@H](C)CC)C(C)C)C(N)=O)C(=O)O [Compound 265] |  |  | 100 | < 0.1 |  |  | 80 | 0.1 to 1 | < 10 |  |  |  | 
5 | CCCCCCCCCCCCCCCC(=O)N[C@@H](CCC(=O)NCCCC[C@H](NC(=O)[C@H](CO)NC(=O)[C@@H]1CCCN1C(=O)[C@@H]1CCCN1C(=O)[C@@H]1CCCN1C(=O)[C@H](C)NC(=O)CNC(=O)[C@H](CO)NC(=O)[C@H](CO)NC(=O)[C@@H]1CCCN1C(=O)CNC(=O)CNC(=O)[C@H](C)NC(=O)[C@H](CC(C)C)NC(=O)[C@H](CC(C)C)NC(=O)[C@H](Cc1c[nH]c2ccccc12)NC(=O)[C@H](CC(N)=O)NC(=O)[C@@H](NC(=O)[C@H](Cc1ccccc1)NC(=O)[C@H](CCC(=O)O)NC(=O)C(C)(C)NC(=O)[C@H](C)NC(=O)[C@H](C)NC(=O)[C@H](CCC(N)=O)NC(=O)[C@H](CCCCN)NC(=O)[C@H](CC(=O)O)NC(=O)[C@H](CC(C)C)NC(=O)[C@H](Cc1ccc(O)cc1)NC(=O)[C@@H](NC(=O)[C@H](CO)NC(=O)[C@H](Cc1ccc(O)cc1)NC(=O)[C@H](CC(=O)O)NC(=O)[C@H](CO)NC(=O)[C@@H](NC(=O)[C@H](Cc1ccccc1)NC(=O)[C@@H](NC(=O)CNC(=O)[C@H](CCC(=O)O)NC(=O)CSCC(=O)NCCn1ccc(C)cc1=O)[C@@H](C)O)[C@@H](C)O)[C@@H](C)CC)C(C)C)C(N)=O)C(=O)O [Compound 285] |  |  | 99 |  |  |  | 97 |  |  |  | < 0.1 | 0.1 to 1 | > 1000
